# Reference: patent publication US20230391727A1, “ANALOGUES OF PENTAMIDINE AND METHODS FOR TREATING INFECTIONS” (Auransa Inc., priority 2020, published 2023)
# Legend:
# Experiment in all cases: Checkerboard/MIC assay with rifampicin
# Format in all cases: cell-based
# [1] = tested on: A. baumannii (ATCC 17978); details: Acinetobacter baumannii ATCC 17978
# Description: (§1) The 17 test strains/isolates were: (1) Serratia marcescens (ATCC 13880); (2) Salmonella typhimurium (ATCC 13311); (3) Salmonella choleraesuis (ATCC 10708); (4) Acinetobacter baumannii (ATCC BAA-1605); (5) A. baumannii (ATCC 17978); (6) A. baumannii (FDA-CDC AR-BANK#0088); (7) Citrobacter freundii (ATCC 8090); (8) Pseudomonas aeruginosa (BCCM 27647); (9) P. aeruginosa (BCCM 27648); (10) Escherichia coli (ATCC 25922); (11) E. coli (ATCC 10536); (12) Stenotrophomonas maltophilia (ATCC 13637); (13) Enterobacter cloacae (ATCC BAA-1143); (14) E. cloacae (ATCC 13047); (15) E. aerogenes (ATCC 13048); (16) Klebsiella pneumoniae (NCTC 13438); and (17) Klebsiella pneumoniae (FDA-CDC AR-BANK#0160). These bacterial strains were obtained from the American Type Culture Collection (ATCC, Rockville, MD, USA); Belgian Coordinated Collections of Microorganisms; The Culture Collections of Public Health England, UK; and FDA-CDC anticimrobial Resistance Isolate Bank, USA, and cryopreserved as single-use frozen working stock cultures which were stored at −80° C.
# (§2) The 17 test strains were grown on nutrient agar or tryptic soy agar (TSA) medium as below. Colonies were suspended in phosphate buffered saline (PBS) pH 7.4. The absorbance of the bacterial suspension was measured with a spectrophotometer at OD620nm, and then the suspension was adjusted to 1-2×10^8 CFU/mL in PBS. The adjusted suspension was further diluted 1:500 in cation-adjusted Mueller-Hinton Broth. Each well contained approximately 5×10^5 CFU/mL. […] The testing inoculum was prepared within minutes before adding to wells of the test plate.
# (§3) Compound 3 was tested in 8 points by two-fold serial titrations from 100 to 0.78 μg/mL. […] Assay plates were incubated and MIC endpoints were read as complete inhibition of visual growth. The checkerboard combination analysis was performed following the MIC testing protocol to identify potential synergistic, indifferent or antagonistic interactions. The analysis also included each test substance alone at the same concentration ranges.
# (§4) FIC (Fraction Inhibitory Concentration) and FIC Index (FICI) values for each test condition and the average of FICI values of all pairwise combinations were calculated to determine if synergy or antagonism existed between the two substances. The FIC index was determined by calculating the sum of the ratios of MICs (minimum inhibitory concentrations) for both substances. […] Synergy is defined as the FICI (Σ)≤0.5; additivity or indifference are defined as the FICI (Σ)>0.5 to ≤4; antagonism is defined as the FICI (Σ)>4. The two fold of highest test article concentration was used for FIC value calculations in the circumstances where MIC values were greater than the highest test article concentration.
# [2] = tested on: A. baumannii (FDA-CDC AR-BANK#0088); details: Acinetobacter baumannii AR-BANK 0088
# Description: as §1, §2, §3, §4
# [3] = tested on: Acinetobacter baumannii (ATCC BAA-1605); details: Acinetobacter baumannii BAA-1605
# Description: as §1, §2, §3, §4
# [4] = tested on: Citrobacter freundii (ATCC 8090)
# Description: as §1, §2, §3, §4
# [5] = tested on: E. aerogenes (ATCC 13048); details: Enterobacter aerogenes ATCC-13048
# Description: as §1, §2, §3, §4
# [6] = tested on: E. cloacae (ATCC 13047); details: Enterobacter cloacae ATCC-13047
# Description: as §1, §2, §3, §4
# [7] = tested on: E. coli (ATCC 10536); details: Escherichia coli ATCC 10536
# Description: as §1, §2, §3, §4
# [8] = tested on: Enterobacter cloacae (ATCC BAA-1143); details: Enterobacter cloacae BAA-1143
# Description: as §1, §2, §3, §4
# [9] = tested on: Klebsiella pneumoniae (FDA-CDC AR-BANK#0160); details: Klebsiella pneumoniae AR-BANK#0160
# Description: as §1, §2, §3, §4
# [10] = tested on: Klebsiella pneumoniae (NCTC 13438)
# Description: as §1, §2, §3, §4
# [11] = tested on: P. aeruginosa (BCCM 27648); details: Pseudomonas aeruginosa BCCM27648
# Description: as §1, §2, §3, §4
# [12] = tested on: Pseudomonas aeruginosa (BCCM 27647); details: Pseudomonas aeruginosa BCCM27647
# Description: as §1, §2, §3, §4
# [13] = tested on: Salmonella choleraesuis (ATCC 10708); details: Salmonella choleraesuis ATCC 10708
# Description: as §1, §2, §3, §4
# [14] = tested on: Salmonella typhimurium (ATCC 13311); details: Salmonella typhimurium ATCC13311
# Description: as §1, §2, §3, §4
# [15] = tested on: Serratia marcescens (ATCC 13880)
# Description: as §1, §2, §3, §4
# [16] = compound 3 in combination with rifampicin
compound,measurement,setting,value
"N=C(N)c1ccc(CC[C@H]2CCC[C@@H](CCc3ccc(C(=N)N)cc3)C2)cc1 [Compound 3, 4,4′-(2,2′-((1R,3S)-cyclohexane-1,3-diyl)bis(ethane-2,1-diyl))dibenzimidamide]",MIC,"[1]; ATCC17978, substance alone",25 µg/mL
same,Combination Result,[1]; [16],synergy (Synergy is defined as the FICI (Σ)≤0.5)
same,FICI (Average),[1]; [16],0.27
same,Combination Result,[2]; [16],synergy (Synergy is defined as the FICI (Σ)≤0.5)
same,FICI (Average),[2]; [16],0.31
same,MIC,[2]; substance alone,25 µg/mL
same,Combination Result,[3]; [16],synergy (Synergy is defined as the FICI (Σ)≤0.5)
same,FICI (Average),[3]; [16],0.31
same,MIC,[3]; substance alone,25 µg/mL
same,MIC,"[4]; ATCC8090, substance alone",100 µg/mL
same,Combination Result,[4]; [16],synergy (Synergy is defined as the FICI (Σ)≤0.5)
same,FICI (Average),[4]; [16],0.19
same,MIC,"[5]; Klebsiella aerogenes, ATCC13048, substance alone",100 µg/mL
same,Combination Result,[5]; [16],synergy (Synergy is defined as the FICI (Σ)≤0.5)
same,FICI (Average),[5]; [16],0.19
same,MIC,"[6]; ATCC13047, substance alone",100 µg/mL
same,Combination Result,[6]; [16],synergy (Synergy is defined as the FICI (Σ)≤0.5)
same,FICI (Average),[6]; [16],0.19
same,MIC,"[7]; ATCC10536, substance alone",6.25 µg/mL
same,Combination Result,[7]; [16],synergy (Synergy is defined as the FICI (Σ)≤0.5)
same,FICI (Average),[7]; [16],0.48
same,Combination Result,[8]; [16],synergy (Synergy is defined as the FICI (Σ)≤0.5)
same,FICI (Average),[8]; [16],0.19
same,MIC,[8]; substance alone,100 µg/mL
same,Combination Result,[9]; [16],synergy (Synergy is defined as the FICI (Σ)≤0.5)
same,FICI (Average),[9]; [16],0.19
same,MIC,[9]; substance alone,100 µg/mL
same,MIC,"[10]; NCTC13438, substance alone",50 µg/mL
same,Combination Result,[10]; [16],synergy (Synergy is defined as the FICI (Σ)≤0.5)
same,FICI (Average),[10]; [16],0.22
same,Combination Result,[11]; [16],additivity/
same,FICI (Average),[11]; [16],1.03
same,MIC,[11]; substance alone,25 µg/mL
same,Combination Result,[12]; [16],additivity/
same,FICI (Average),[12]; [16],1.03
same,MIC,[12]; substance alone,25 µg/mL
same,MIC,"[13]; Salmonella enterica, substance alone, read-out: MIC",50 µg/mL
same,Combination Result,[13]; [16],synergy (Synergy is defined as the FICI (Σ)≤0.5)
same,FICI (Average),[13]; [16],0.32
same,MIC,"[14]; Salmonella enterica, substance alone",12.5 µg/mL
same,Combination Result,[14]; [16],synergy (Synergy is defined as the FICI (Σ)≤0.5)
same,FICI (Average),[14]; [16],0.34
same,MIC,"[15]; ATCC13880, substance alone",> 100 µg/mL
same,Combination Result,[15]; [16],synergy (Synergy is defined as the FICI (Σ)≤0.5)
same,FICI (Average),[15]; [16],0.21
